# From patent publication US11478471B2, “Methods and compositions for treating diabetes, metabolic syndrome and other conditions” (priority 2005, dated 2022)
# Entries after “also recorded” stand apart in the source; their conditions may differ. Where two headings read alike, the source gives them in different places.
# Tests used:
# plasma corticosterone = assay: Plasma corticosterone in rats after oral dosing (ELISA); assay type: in vivo, Sprague Dawley rats; conditions: for effect on plasma corticosterone (FIG. 1): 200 mg/kg oral, vs vehicle; for Corticosteroid Levels (mean ± SEM): 4 h after gavage
# Experimental: To generate the results shown in FIG. 1, five groups (eight per group) of rats were used. The rats were maintained on a 14/10 hour light/dark cycle and allowed free access to food and water. Each rat was dosed (200 mg drug/kg body weight) via a gastric tube. […] All of the rats were dosed between 2.00 and 3.00 pm and were sacrificed four hours later (between 6.00 and 7.00 pm). Plasma was prepared and the concentration of corticosterone determined by an enzyme linked immuno assay (ELISA). In rats, the predominant active glucocorticoid is corticosterone; in humans, the predominant active glucucorticoid is the closely related molecule cortisol.
# The rats were maintained and dosed as described above. Plasma was prepared and the concentration of corticosterone in the plasma determined by ELISA.
# (§1) The rats were maintained as described above; the drugs were suspended in olive oil, and each rat was dosed once via gastric tube to achieve a dose of 200 mg/kg. All of the rats were dosed at a specific time so that all terminations occurred between 6 and 7 pm. […] Following sacrifice, plasma was prepared, and the concentration of corticosterone in the plasma was determined by ELISA. In the same plasma samples, total cholesterol levels were also determined.
# In the Table, corticosterone levels (mean±SEM; ng/mL) were determined four hours after oral gavage of the indicated drug (N=10/group). There was a single control group (dosed with vehicle).
# Corticosterone levels (mean±SEM; ng/mL) were determined at the indicated times after oral gavage of the indicated drug at 200 mg/kg. […] The means of the vehicle treated groups are used as the time zero control point.
# cholesterol levels = assay: Cholesterol levels in rats after oral dosing; assay type: in vivo, Sprague Dawley rats; conditions: single oral 200 mg/kg
# Experimental: as §1
# testosterone levels = assay: Testosterone levels in rats after oral dosing; assay type: in vivo, Sprague Dawley rats; conditions: for Testosterone levels (mean ± SEM): 4 h after gavage
# From the text: There was a single control group (dosed with vehicle).
# The means of the vehicle treated groups are used as the time zero control point.
# Candida albicans = assay: Antifungal MIC; assay type: cell-based; conditions: read-out: MIC
# Candida glabrata = assay: Antifungal MIC; assay type: cell-based; conditions: Nakaseomyces glabratus, read-out: MIC
# Candida guilliermondii = assay: Antifungal MIC; assay type: cell-based; conditions: Meyerozyma guilliermondii, DSM11947; DSM strain 11947, 48 h
# Candida kefyr = assay: Antifungal MIC; assay type: cell-based; conditions: Kluyveromyces marxianus, DSM11954; DSM strain 11954, 48 h
# Candida parapsilosis = assay: Antifungal MIC; assay type: cell-based; conditions: Lodderomyces parapsilosis, read-out: MIC
# Candida tropicalis = assay: Antifungal MIC; assay type: cell-based
# Cryptococcus neoformans = assay: Antifungal MIC; assay type: cell-based
# Issatchenkia orientalis = assay: Antifungal MIC; assay type: cell-based; conditions: Pichia kudriavzevii, read-out: MIC
# Saccharomyces cerevisiae = assay: Antifungal MIC; assay type: cell-based; conditions: DSM01333, DSM strain 01333, 48 h
# P450 2C6 = P450 2C6 (Rattus norvegicus, UniProt P05178); conditions: Rotstein et al. 1992; read-out: IC50, progesterone 21 hydroxylase (2C6); cited from earlier work
# P450 3A = conditions: read-out: IC50, progesterone 6β hydroxylase (3A); Rotstein et al. 1992; cited from earlier work
# [1] = test system: P450 2B1, 2B2, 1A1, 2C11, 3A; conditions: read-out: IC50, progesterone 16α hydroxylase (2B1, 2B2, 1A1, 2C11, 3A); Rotstein et al. 1992; cited from earlier work
# P450 4A = conditions: read-out: IC50, lauric acid hydroxylase (4A); Rotstein et al. 1992; cited from earlier work
# [2] = humans, cited from earlier work
# [3] = test system: CYP7A (cholesterol 7α hydroxylase); assay: Inhibition of CYP7A, cholesterol 7α-hydroxylase activity (Rotstein et al. 1992); conditions: assuming intrahepatic concentration approximately 20% of total plasma concentration; listed as 2R,4S enantiomer
# succinate dehydrogenase = biological target: T1, succinate dehydrogenase (Rattus norvegicus, UniProt Q920L2); conditions: read-out: in vitro IC50, succinate dehydrogenase; cited from earlier work
# T1 construct: host or cells: isolated rat liver mitochondria (from the cited title)
# [4] = following fifth 200 mg dose of racemic ketoconazole (every twelve hours)
# [5] = following first 200 mg dose of racemic ketoconazole
# T1 sequence (Q920L2 35-656): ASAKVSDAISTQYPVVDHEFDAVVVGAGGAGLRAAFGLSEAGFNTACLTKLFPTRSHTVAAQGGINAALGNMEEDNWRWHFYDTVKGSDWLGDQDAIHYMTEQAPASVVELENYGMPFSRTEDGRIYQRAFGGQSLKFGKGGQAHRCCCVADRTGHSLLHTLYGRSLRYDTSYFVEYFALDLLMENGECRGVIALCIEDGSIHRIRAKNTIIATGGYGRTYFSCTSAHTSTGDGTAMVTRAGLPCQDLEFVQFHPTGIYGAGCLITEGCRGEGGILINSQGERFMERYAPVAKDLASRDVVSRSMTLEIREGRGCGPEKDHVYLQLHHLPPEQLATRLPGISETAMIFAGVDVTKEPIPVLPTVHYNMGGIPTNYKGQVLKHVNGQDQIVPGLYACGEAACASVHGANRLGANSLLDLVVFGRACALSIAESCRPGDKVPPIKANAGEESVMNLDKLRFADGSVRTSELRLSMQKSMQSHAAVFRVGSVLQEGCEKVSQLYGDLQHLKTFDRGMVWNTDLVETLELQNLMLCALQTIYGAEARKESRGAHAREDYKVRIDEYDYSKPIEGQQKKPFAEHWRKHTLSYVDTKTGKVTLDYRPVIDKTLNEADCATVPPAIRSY
# T1 sequence (P21913 31-282 partner): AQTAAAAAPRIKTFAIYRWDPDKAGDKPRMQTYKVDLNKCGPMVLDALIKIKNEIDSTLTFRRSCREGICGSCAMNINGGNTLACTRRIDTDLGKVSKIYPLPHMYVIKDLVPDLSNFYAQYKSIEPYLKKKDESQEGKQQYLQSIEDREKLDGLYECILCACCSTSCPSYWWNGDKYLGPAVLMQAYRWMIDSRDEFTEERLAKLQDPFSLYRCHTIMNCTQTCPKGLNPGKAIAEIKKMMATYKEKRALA
# T1 sequence (Q641Z9 30-169 partner limits assumed): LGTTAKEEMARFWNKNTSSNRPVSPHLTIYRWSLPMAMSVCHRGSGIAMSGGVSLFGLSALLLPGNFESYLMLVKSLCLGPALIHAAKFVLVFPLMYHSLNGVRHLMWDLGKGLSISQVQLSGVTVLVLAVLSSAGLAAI
# T1 sequence (Q6PCT8 57-159 partner): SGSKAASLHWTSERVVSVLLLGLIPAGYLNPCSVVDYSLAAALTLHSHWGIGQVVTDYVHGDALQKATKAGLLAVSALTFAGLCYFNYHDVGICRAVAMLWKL
# P450 2C6, sequence (P05178 whole entry): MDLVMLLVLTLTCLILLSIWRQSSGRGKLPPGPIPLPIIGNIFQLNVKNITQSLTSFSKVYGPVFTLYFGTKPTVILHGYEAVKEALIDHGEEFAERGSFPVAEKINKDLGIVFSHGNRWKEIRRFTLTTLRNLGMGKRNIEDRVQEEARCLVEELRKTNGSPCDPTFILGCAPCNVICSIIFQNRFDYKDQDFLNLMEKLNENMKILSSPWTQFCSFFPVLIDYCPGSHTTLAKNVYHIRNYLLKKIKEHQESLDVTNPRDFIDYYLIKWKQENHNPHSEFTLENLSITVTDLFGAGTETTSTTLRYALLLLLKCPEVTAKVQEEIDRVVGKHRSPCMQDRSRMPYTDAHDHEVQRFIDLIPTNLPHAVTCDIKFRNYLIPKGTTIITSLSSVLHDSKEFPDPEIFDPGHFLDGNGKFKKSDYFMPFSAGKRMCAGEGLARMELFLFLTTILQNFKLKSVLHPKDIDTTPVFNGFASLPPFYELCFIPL
smiles,measurement,setting,value
"CC(=O)N1CCN(c2ccc(OC[C@H]3CO[C@](Cn4ccnc4)(c4ccc(Cl)cc4Cl)O3)cc2)CC1 [2R,4S]",effect on plasma corticosterone (FIG. 1),plasma corticosterone; 4 h,reduce corticosterone
same,Corticosteroid Levels (mean ± SEM),plasma corticosterone; single oral 50 mg/kg,226 ± 30.1 ng/mL
same,Corticosteroid Levels (mean ± SEM),plasma corticosterone; single oral 100 mg/kg,196 ± 17.2 ng/mL
same,"Corticosteroid Levels (mean ± SEM), time course","plasma corticosterone; single oral 200 mg/kg, 4 h",191 ± 14 ng/mL
same,Corticosteroid Levels (mean ± SEM),plasma corticosterone; single oral 200 mg/kg,217 ± 25.8 ng/mL
same,"Corticosteroid Levels (mean ± SEM), time course","plasma corticosterone; single oral 200 mg/kg, 8 h",206 ± 13 ng/mL
same,"Corticosteroid Levels (mean ± SEM), time course","plasma corticosterone; single oral 200 mg/kg, 12 h",175 ± 9 ng/mL
same,"Corticosteroid Levels (mean ± SEM), time course","plasma corticosterone; single oral 200 mg/kg, 16 h",171 ± 9 ng/mL
same,"Corticosteroid Levels (mean ± SEM), time course","plasma corticosterone; single oral 200 mg/kg, 20 h",169 ± 7 ng/mL
same,"Corticosteroid Levels (mean ± SEM), time course","plasma corticosterone; single oral 200 mg/kg, 24 h",182 ± 10 ng/mL
same,Corticosteroid Levels (mean ± SEM),plasma corticosterone; single oral 400 mg/kg,192 ± 11.6 ng/mL
same,Corticosteroid Levels (mean ± SEM),plasma corticosterone; single oral 600 mg/kg,167 ± 6.8 ng/mL
same,Cholesterol Levels (mean ± SEM),cholesterol levels; 4 h,85.1 ± 7 mg/dL
same,Cholesterol Levels (mean ± SEM),cholesterol levels; 8 h,85.1 ± 5.4 mg/dL
same,Cholesterol Levels (mean ± SEM),cholesterol levels; 12 h,77.3 ± 1.9 mg/dL
same,Cholesterol Levels (mean ± SEM),cholesterol levels; 16 h,77.3 ± 4.6 mg/dL
same,Cholesterol Levels (mean ± SEM),cholesterol levels; 20 h,69.6 ± 2.7 mg/dL
same,Cholesterol Levels (mean ± SEM),cholesterol levels; 24 h,69.6 ± 1.5 mg/dL
same,Testosterone levels (mean ± SEM),testosterone levels; single oral 50 mg/kg,2.5 ± 0.5 nmol/L
same,Testosterone levels (mean ± SEM),testosterone levels; single oral 100 mg/kg,1.3 ± 0.2 nmol/L
same,"Testosterone levels (mean ± SEM), time course","testosterone levels; single oral 200 mg/kg, 4 h",3.4 ± 0.5 nmol/L
same,Testosterone levels (mean ± SEM),testosterone levels; single oral 200 mg/kg,1.4 ± 0.4 nmol/L
same,"Testosterone levels (mean ± SEM), time course","testosterone levels; single oral 200 mg/kg, 8 h",8.6 ± 2.0 nmol/L
same,"Testosterone levels (mean ± SEM), time course","testosterone levels; single oral 200 mg/kg, 12 h",5.6 ± 1.1 nmol/L
same,"Testosterone levels (mean ± SEM), time course","testosterone levels; single oral 200 mg/kg, 16 h",5.5 ± 0.9 nmol/L
same,"Testosterone levels (mean ± SEM), time course","testosterone levels; single oral 200 mg/kg, 20 h",5.2 ± 1.1 nmol/L
same,"Testosterone levels (mean ± SEM), time course","testosterone levels; single oral 200 mg/kg, 24 h",6.0 ± 1.0 nmol/L
same,Testosterone levels (mean ± SEM),testosterone levels; single oral 400 mg/kg,0.7 ± 0.2 nmol/L
same,Testosterone levels (mean ± SEM),testosterone levels; single oral 600 mg/kg,1.6 ± 0.3 nmol/L
same,MIC,"Candida albicans; DSM11225, DSM strain 11225, 48 h",< 0.015 µg/mL
same,MIC,"Candida albicans; DSM11943, DSM strain 11943, 48 h",< 0.015 µg/mL
same,MIC,"Candida albicans; DSM11944, DSM strain 11944, 48 h",< 0.015 µg/mL
same,MIC,"Candida albicans; DSM11945, DSM strain 11945, 48 h",0.03 µg/mL
same,MIC,"Candida albicans; DSM11948, DSM strain 11948, 48 h",< 0.015 µg/mL
same,MIC,"Candida albicans; DSM11949, DSM strain 11949, 48 h",0.25 µg/mL
same,MIC,"Candida albicans; strain 98-St-00799, 48 h",< 0.015 µg/mL
same,MIC,"Candida glabrata; DSM11226, DSM strain 11226, 48 h",0.5 µg/mL
same,MIC,"Candida glabrata; DSM11950, DSM strain 11950, 48 h",0.25 µg/mL
same,MIC,Candida guilliermondii,0.25 µg/mL
same,MIC,Candida kefyr,0.03 µg/mL
same,MIC,"Candida parapsilosis; DSM05784, DSM strain 05784, 48 h",0.06 µg/mL
same,MIC,"Candida parapsilosis; DSM11224, DSM strain 11224, 48 h",0.06 µg/mL
same,MIC,"Candida tropicalis; DSM11951, 48 h",0.125 µg/mL
same,MIC,"Candida tropicalis; DSM11952, DSM strain 11952, 48 h, read-out: MIC",4 µg/mL
same,MIC,"Candida tropicalis; DSM11953, 48 h",0.125 µg/mL
same,MIC,"Cryptococcus neoformans; DSM11959, DSM strain 11959, 48 h",0.03 µg/mL
same,MIC,"Cryptococcus neoformans; DSM11960, DSM strain 11960, 48 h",0.125 µg/mL
same,MIC,"Issatchenkia orientalis; DSM11956, DSM strain 11956, 48 h",0.5 µg/mL
same,MIC,"Issatchenkia orientalis; DSM11958, DSM strain 11958, 48 h",2 µg/mL
same,MIC,Saccharomyces cerevisiae,0.25 µg/mL
same,IC50,P450 2C6,11.2 µM
same,IC50,P450 3A,0.79 µM
same,IC50,[1],69 µM
same,IC50,P450 4A,< 100 µM
same,AUC 0-12,[2]; [4],1543 ± 231 µg·min/mL
same,Cmax,[2]; [4],4770 ± 550 ng/mL
same,T ½,[2]; [4],2.63 ± 0.317 h
same,AUC 0-12,[2]; [5],820 ± 142 µg·min/mL
same,Cmax,[2]; [5],3400 ± 440 ng/mL
same,T ½,[2]; [5],1.62 ± 0.13 h
same,total plasma concentration required to inhibit intrahepatic CYP7A,[3],approximately 1 microM; also recorded: approximately 0.5 microg/mL
CC(=O)N1CCN(c2ccc(OCC3COC(Cn4ccnc4)(c4ccc(Cl)cc4Cl)O3)cc2)CC1 (stereo not drawn) [2S45],effect on plasma corticosterone (FIG. 1),plasma corticosterone; 4 h,little effect
"Clc1ccc(C2(Cn3ccnc3)OCC(COc3ccc(N4CCNCC4)cc3)O2)c(Cl)c1 (stereo not drawn) [DAK, deacetylated ketoconazole]",IC50,succinate dehydrogenase,350 µM
